{"source": "ChEMBL document CHEMBL1201862", "about": "“PubChem BioAssay data set” (2004)", "experiment_in_all_cases": "growth of human tumour cells (NCI), 48 h", "key": {"SF-295": {"tested_on": "SF-295"}, "ACHN": {"tested_on": "ACHN"}, "RXF 393": {"tested_on": "RXF 393"}, "OVCAR-4": {"tested_on": "OVCAR-4"}, "CCRF-CEM": {"tested_on": "CCRF-CEM"}, "HCT-116": {"tested_on": "HCT-116"}, "SK-MEL-2": {"tested_on": "SK-MEL-2"}, "LOX IMVI": {"tested_on": "LOX IMVI"}, "NCI-H460": {"tested_on": "NCI-H460"}, "786-0": {"tested_on": "786-0"}, "M14": {"tested_on": "M14"}, "MOLT-4": {"tested_on": "MOLT-4"}, "SK-MEL-28": {"tested_on": "SK-MEL-28"}, "HL-60": {"tested_on": "HL-60"}, "HCT-15": {"tested_on": "HCT-15"}, "NCI-H23": {"tested_on": "NCI-H23"}, "SK-OV-3": {"tested_on": "SK-OV-3"}, "TK-10": {"tested_on": "TK-10"}, "SN12C": {"tested_on": "SN12C"}, "COLO 205": {"tested_on": "COLO 205"}}, "note": "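Test compounds were applied to cells in 96-well plates for 48 hours at 5 doses. Here, GI50 denotes the concentration required for 50% inhibition of growth.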 Calls of active or inactive are those of the source. Rule as the data show it: active = GI50 up to about 1.1 µM and inactive = higher.", "data": [{"compound": "CCCCCCCCCCCCNC(=S)OC", "values": [{"measurement": "GI50", "setting": "SF-295", "value": "19.4 µM (inactive)"}, {"measurement": "GI50", "setting": "ACHN", "value": "17.9 µM (inactive)"}, {"measurement": "GI50", "setting": "RXF 393", "value": "12.8 µM (inactive)"}, {"measurement": "GI50", "setting": "OVCAR-4", "value": "19.4 µM (inactive)"}, {"measurement": "GI50", "setting": "CCRF-CEM", "value": "10.5 µM (inactive)"}, {"measurement": "GI50", "setting": "HCT-116", "value": "15.4 µM (inactive)"}, {"measurement": "GI50", "setting": "SK-MEL-2", "value": "16.8 µM (inactive)"}, {"measurement": "GI50", "setting": "LOX IMVI", "value": "15.2 µM (inactive)"}, {"measurement": "GI50", "setting": "NCI-H460", "value": "17.3 µM (inactive)"}, {"measurement": "GI50", "setting": "786-0", "value": "15.8 µM (inactive)"}, {"measurement": "GI50", "setting": "M14", "value": "17.3 µM (inactive)"}, {"measurement": "GI50", "setting": "MOLT-4", "value": "2.16 µM (inactive)"}, {"measurement": "GI50", "setting": "SK-MEL-28", "value": "16.9 µM (inactive)"}, {"measurement": "GI50", "setting": "HL-60", "value": "10.5 µM (inactive)"}, {"measurement": "GI50", "setting": "HCT-15", "value": 14.6, "unit": "µM"}, {"measurement": "GI50", "setting": "NCI-H23", "value": "17.8 µM (inactive)"}, {"measurement": "GI50", "setting": "SK-OV-3", "value": "16 µM (inactive)"}, {"measurement": "GI50", "setting": "TK-10", "value": "19.5 µM (inactive)"}, {"measurement": "GI50", "setting": "SN12C", "value": "14.3 µM (inactive)"}]}, {"compound": "FC(F)(F)c1ccc2c(c1)nc1n2C(c2c(Cl)cccc2Cl)SC1", "note": "(stereo not given)", "values": [{"measurement": "GI50", "setting": "SF-295", "value": "16.6 µM (inactive)"}, {"measurement": "GI50", "setting": "ACHN", "value": "15.9 µM (inactive)"}, {"measurement": "GI50", "setting": "RXF 393", "value": "14.4 µM (inactive)"}, {"measurement": "GI50", "setting": "OVCAR-4", "value": "18.3 µM (inactive)"}, {"measurement": "GI50", "setting": "HCT-116", "value": "15.1 µM (inactive)"}, {"measurement": "GI50", "setting": "SK-MEL-2", "value": "17.7 µM (inactive)"}, {"measurement": "GI50", "setting": "LOX IMVI", "value": "25.9 µM (inactive)"}, {"measurement": "GI50", "setting": "NCI-H460", "value": "16.8 µM (inactive)"}, {"measurement": "GI50", "setting": "786-0", "value": "16.6 µM (inactive)"}, {"measurement": "GI50", "setting": "M14", "value": "16.1 µM (inactive)"}, {"measurement": "GI50", "setting": "MOLT-4", "value": "38.7 µM (inactive)"}, {"measurement": "GI50", "setting": "SK-MEL-28", "value": "14.4 µM (inactive)"}, {"measurement": "GI50", "setting": "HL-60", "value": "23.8 µM (inactive)"}, {"measurement": "GI50", "setting": "HCT-15", "value": 21.6, "unit": "µM"}, {"measurement": "GI50", "setting": "NCI-H23", "value": "20.5 µM (inactive)"}, {"measurement": "GI50", "setting": "SK-OV-3", "value": "25.8 µM (inactive)"}, {"measurement": "GI50", "setting": "TK-10", "value": "22 µM (inactive)"}, {"measurement": "GI50", "setting": "SN12C", "value": "16.9 µM (inactive)"}]}, {"compound": "CN(C)CC1CCC/C(=C\\c2ccccc2)C1=O", "note": "(stereo not given)", "values": [{"measurement": "GI50", "setting": "SF-295", "value": "19.5 µM (inactive)"}, {"measurement": "GI50", "setting": "ACHN", "value": "3.5 µM (inactive)"}, {"measurement": "GI50", "setting": "RXF 393", "value": "2.84 µM (inactive)"}, {"measurement": "GI50", "setting": "OVCAR-4", "value": "1.6 µM (inactive)"}, {"measurement": "GI50", "setting": "CCRF-CEM", "value": "0.959 µM (active)"}, {"measurement": "GI50", "setting": "HCT-116", "value": "1.56 µM (inactive)"}, {"measurement": "GI50", "setting": "SK-MEL-2", "value": "5.5 µM (inactive)"}, {"measurement": "GI50", "setting": "LOX IMVI", "value": "1.69 µM (inactive)"}, {"measurement": "GI50", "setting": "NCI-H460", "value": "3.1 µM (inactive)"}, {"measurement": "GI50", "setting": "786-0", "value": "2.65 µM (inactive)"}, {"measurement": "GI50", "setting": "MOLT-4", "value": "4.6 µM (inactive)"}, {"measurement": "GI50", "setting": "SK-MEL-28", "value": "2.23 µM (inactive)"}, {"measurement": "GI50", "setting": "HL-60", "value": "0.512 µM (active)"}, {"measurement": "GI50", "setting": "HCT-15", "value": 2.14, "unit": "µM"}, {"measurement": "GI50", "setting": "NCI-H23", "value": "10.2 µM (inactive)"}, {"measurement": "GI50", "setting": "SK-OV-3", "value": "19.8 µM (inactive)"}, {"measurement": "GI50", "setting": "TK-10", "value": "2.36 µM (inactive)"}, {"measurement": "GI50", "setting": "COLO 205", "value": "2.24 µM (inactive)"}, {"measurement": "GI50", "setting": "SN12C", "value": "6.14 µM (inactive)"}]}, {"compound": "CN(C)N1C(=O)C(=O)N(c2cccc3ccccc23)C1=O", "values": [{"measurement": "GI50", "setting": "SF-295", "value": "> 10 µM (inactive)"}, {"measurement": "GI50", "setting": "ACHN", "value": "> 10 µM (inactive)"}, {"measurement": "GI50", "setting": "RXF 393", "value": "> 10 µM (inactive)"}, {"measurement": "GI50", "setting": "OVCAR-4", "value": "> 10 µM (inactive)"}, {"measurement": "GI50", "setting": "CCRF-CEM", "value": "> 10 µM (inactive)"}, {"measurement": "GI50", "setting": "HCT-116", "value": "> 10 µM (inactive)"}, {"measurement": "GI50", "setting": "SK-MEL-2", "value": "> 10 µM (inactive)"}, {"measurement": "GI50", "setting": "LOX IMVI", "value": "> 10 µM (inactive)"}, {"measurement": "GI50", "setting": "NCI-H460", "value": "> 10 µM (inactive)"}, {"measurement": "GI50", "setting": "M14", "value": "> 10 µM (inactive)"}, {"measurement": "GI50", "setting": "MOLT-4", "value": "> 10 µM (inactive)"}, {"measurement": "GI50", "setting": "SK-MEL-28", "value": "> 10 µM (inactive)"}, {"measurement": "GI50", "setting": "HL-60", "value": "> 10 µM (inactive)"}, {"measurement": "GI50", "setting": "HCT-15", "value": "> 10", "unit": "µM"}, {"measurement": "GI50", "setting": "NCI-H23", "value": "> 10 µM (inactive)"}, {"measurement": "GI50", "setting": "SK-OV-3", "value": "> 10 µM (inactive)"}, {"measurement": "GI50", "setting": "TK-10", "value": "> 10 µM (inactive)"}, {"measurement": "GI50", "setting": "COLO 205", "value": "> 10 µM (inactive)"}, {"measurement": "GI50", "setting": "SN12C", "value": "> 10 µM (inactive)"}]}]}
